Laboratory results from US20240158446A1, “CYCLIC COMPOUND HAVING SELECTIVE INHIBITORY ACTION ON KRAS OVER HRAS AND NRAS” (CHUGAI SEIYAKU KABUSHIKI KAISHA, priority 2021, published 2024).
Like-named read-outs stand apart in the source and are kept apart here. Where a SMILES comes first, the peptide text is derived from it. Bridges are numbered along the chain shown (N, C = ends). [ ]: non-standard residue; d: D form. hPhe(3,5-F2-4-CF3) = N[C@@H](CCc1cc(F)c(C(F)(F)F)c(F)c1)C(=O)O; NPrPhe(4-CF3) = CCCN[C@@H](Cc1ccc(C(F)(F)F)cc1)C(=O)O; NMeGly(cPent) = CN[C@H](C(=O)O)C1CCCC1; Nva(3-Et) = CCC(CC)[C@H](N)C(=O)O; NMeD = CN[C@@H](CC(=O)O)C(=O)O; NMeL = CN[C@@H](CC(C)C)C(=O)O; Ac5c = NC1(C(=O)O)CCCC1; Sar = CNCC(=O)O

Tests used:
[1] = biological target: GDP-bound NRAS wild-type protein (Homo sapiens, UniProt P01111); assay: Binding to NRAS by surface plasmon resonance (SPR), Single Cycle Kinetics; conditions: for NRAS/KRAS (ratio of KD value with respect to GDP-bound NRAS wild-type protein to KD value with respect to KRAS): SPR KD ratio NRAS/KRAS, class symbols
[2] = biological target: GDP-bound KRAS wild-type protein (Homo sapiens, UniProt P01116); assay: Binding to KRAS by surface plasmon resonance (SPR), Single Cycle Kinetics; conditions: GDP-bound KRAS wild-type protein, read-out: KRAS KD
[3] = biological target: GDP-bound HRAS wild-type protein (Homo sapiens, UniProt P01112); assay: Binding to HRAS by surface plasmon resonance (SPR), Single Cycle Kinetics; conditions: for HRAS/KRAS (ratio of KD value with respect to GDP-bound HRAS wild-type protein to KD value with respect to KRAS): SPR KD ratio HRAS/KRAS, class symbols
[4] = SPR, GDP-bound NRAS wild-type protein vs GDP-bound KRAS wild-type protein
[5] = SPR, GDP-bound HRAS wild-type protein vs GDP-bound KRAS wild-type protein
[6] = SPR Single Cycle Kinetics, 1:1 binding model

Chain of GDP-bound KRAS wild-type protein (P01116 whole entry): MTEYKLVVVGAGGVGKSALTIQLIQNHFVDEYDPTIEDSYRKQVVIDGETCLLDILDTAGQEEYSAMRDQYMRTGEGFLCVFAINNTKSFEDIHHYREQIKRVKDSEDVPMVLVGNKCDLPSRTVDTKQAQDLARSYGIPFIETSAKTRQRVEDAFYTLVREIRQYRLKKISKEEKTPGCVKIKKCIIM
Chain of GDP-bound NRAS wild-type protein (P01111 whole entry): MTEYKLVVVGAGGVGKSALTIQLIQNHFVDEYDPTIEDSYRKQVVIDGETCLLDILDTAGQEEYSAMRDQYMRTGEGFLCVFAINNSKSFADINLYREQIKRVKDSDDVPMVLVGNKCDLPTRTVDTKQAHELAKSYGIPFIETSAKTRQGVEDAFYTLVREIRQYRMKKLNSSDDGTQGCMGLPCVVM
Chain of GDP-bound HRAS wild-type protein (P01112 whole entry): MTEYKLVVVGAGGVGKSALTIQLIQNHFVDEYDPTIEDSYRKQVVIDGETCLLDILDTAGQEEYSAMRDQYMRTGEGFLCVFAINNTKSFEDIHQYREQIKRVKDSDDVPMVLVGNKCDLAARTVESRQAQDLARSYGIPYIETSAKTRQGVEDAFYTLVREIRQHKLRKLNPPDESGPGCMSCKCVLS

Kd ([2]; SPR, Single Cycle Kinetics) [pM]	Kd [2, 6] [pM]	Structure (SMILES)	NRAS/KRAS (ratio of KD value for NRAS to KD value for KRAS) [1, 4]	HRAS/KRAS (ratio of KD value for HRAS to KD value for KRAS) [3, 5]	further results
	6900	CCC[C@H]1C(=O)N[C@@H]([C@@H](C)CC)C(=O)N(C)CC(=O)N(C)[C@H]2C/C=C\CCN(C2=O)[C@@H](Cc2ccc(C(F)(F)F)cc2)C(=O)N(C)CC(=O)N[C@@H](CCc2ccc(Cl)c(Cl)c2)C(=O)N2CC[C@H]2C(=O)NC2(CC(C)(C)C2)C(=O)N(C)[C@@H](C(CC)CC)C(=O)N(C)[C@H](C(=O)N(C)C)CC(=O)N1C [PP2921]			NRAS/KRAS (ratio of KD value with respect to GDP-bound NRAS wild-type protein to KD value with respect to KRAS) [1]: AA (a compound having 20 or more is denoted as AA); HRAS/KRAS (ratio of KD value with respect to GDP-bound HRAS wild-type protein to KD value with respect to KRAS) [3]: A (a compound having 10 or more and less than 20 is denoted as A)
180		CCC[C@H]1C(=O)N[C@@H]([C@@H](C)CC)C(=O)N(C)CC(=O)N(C)[C@H]2C/C=C\CCN(C2=O)[C@@H](Cc2ccc(C(F)(F)F)cc2)C(=O)N(C)CC(=O)N[C@@H](CCc2ccc(C(F)(F)F)c(Cl)c2)C(=O)N2C[C@H](OCC)C[C@H]2C(=O)NC2(CC(C)(C)C2)C(=O)N(C)[C@@H]([C@@H](C)CC)C(=O)N(C)[C@H](C(=O)N(C)C)CC(=O)N1C [PP2973]	A (a compound having 10 or more and less than 20 is denoted as A)	A (a compound having 10 or more and less than 20 is denoted as A)	
590		CCC[C@H]1C(=O)N[C@@H](C2CCOCC2)C(=O)N(C)CC(=O)N(C)[C@H]2C/C=C\CCN(C2=O)[C@@H](Cc2ccc(C(F)(F)F)cc2)C(=O)N(C)CC(=O)N[C@@H](CCc2ccc(C(F)(F)F)c(Cl)c2)C(=O)N2C[C@H](OCC)C[C@H]2C(=O)NC2(CC(C)(C)C2)C(=O)N(C)[C@@H](CC(C)(C)C)C(=O)N(C)[C@H](C(=O)N(C)C)CC(=O)N1C [PP3022]	AA (a compound having 20 or more is denoted as AA)	A (a compound having 10 or more and less than 20 is denoted as A)	

Continued, molecule first:

Structure (SMILES)	Kd ([2]; SPR, Single Cycle Kinetics) [pM]	Kd [2, 6] [pM]	NRAS/KRAS (ratio of KD value for NRAS to KD value for KRAS) [1, 4]	HRAS/KRAS (ratio of KD value for HRAS to KD value for KRAS) [3, 5]	further results
CCO[C@@H]1C[C@H]2C(=O)NC3(CCCC3)C(=O)N(C)[C@@H](C3CCCC3)C(=O)N(C)[C@H](C(=O)N(C)C)CC(=O)N(C)[C@@H](CC)C(=O)N[C@@H]([C@@H](C)CC)C(=O)N(C)CC(=O)N(C)[C@H]3CC(C)=C(C)CN(C3=O)[C@@H](Cc3ccc(C(F)(F)F)cc3)C(=O)N(C)CC(=O)N[C@@H](CCc3cc(F)c(C(F)(F)F)c(F)c3)C(=O)N2C1 [PP1050]	940		C (A compound having a KD ratio of 0.1 or more and less than 3 is denoted as C)	C (A compound having a KD ratio of 0.1 or more and less than 3 is denoted as C)	
CCC(CC)[C@H]1C(=O)N(C)[C@H](C(=O)N(C)C)CC(=O)N(C)[C@@H](COC)C(=O)N[C@@H]([C@@H](C)CC)C(=O)N(C)CC(=O)N(C)[C@H]2C/C=C\CCN(C2=O)[C@@H](Cc2ccc(C)cc2)C(=O)N(C)CC(=O)N[C@@H](CCc2ccc(Cl)c(Cl)c2)C(=O)N2C[C@H](OC3CCCC3)C[C@H]2C(=O)N(C)C2(CC(C)(C)C2)C(=O)N1C [PP2818]		880			NRAS/KRAS (ratio of KD value with respect to GDP-bound NRAS wild-type protein to KD value with respect to KRAS) [1]: A (a compound having 10 or more and less than 20 is denoted as A); HRAS/KRAS (ratio of KD value with respect to GDP-bound HRAS wild-type protein to KD value with respect to KRAS) [3]: A (a compound having 10 or more and less than 20 is denoted as A)
CCO[C@@H]1C[C@H]2C(=O)NC3(CC(C)(C)C3)C(=O)N(C)[C@@H](C3CCCC3)C(=O)N(C)[C@H](C(=O)N(C)C)CC(=O)N(C)[C@@H](CC3CC3)C(=O)N[C@@H]([C@@H](C)CC)C(=O)N(C)CC(=O)N(C)[C@H]3C/C=C\CCN(C3=O)[C@@H](Cc3ccc(C(F)(F)F)cc3)C(=O)N(C)CC(=O)N[C@@H](CCc3ccc(C(F)(F)F)c(OC)c3)C(=O)N2C1 [PP1563]					NRAS/KRAS (ratio of KD value for NRAS to KD value for KRAS) ([1]; SPR, GDP-bound NRAS wild-type protein vs GDP-bound KRAS wild-type protein, KD ratio class): A (a compound having 10 or more and less than 20 is denoted as A); Kd ([2]; SPR, Single Cycle Kinetics, 1:1 binding model): 48 pM; HRAS/KRAS (ratio of KD value for HRAS to KD value for KRAS) ([3]; SPR, GDP-bound HRAS wild-type protein vs GDP-bound KRAS wild-type protein, KD ratio class): A (a compound having 10 or more and less than 20 is denoted as A)
CCCN1C(=O)CN(C)C(=O)CN(C)C(=O)[C@H](C(CC)CC)NC(=O)[C@H](CC(C)C)N(C)C(=O)C[C@@H](C(=O)N(C)C)N(C)C(=O)[C@H](C2CCCC2)N(C)C(=O)C2(CCCC2)NC(=O)[C@@H]2CCCN2C(=O)[C@H](CCc2cc(F)c(C(F)(F)F)c(F)c2)NC(=O)CN(C)C(=O)[C@@H]1Cc1ccc(C(F)(F)F)cc1 [PP0747] ([NMeL][Nva(3-Et)][Sar][Sar][NPrPhe(4-CF3)][Sar][hPhe(3,5-F2-4-CF3)]P[Ac5c][NMeGly(cPent)][NMeD]-NMe2; lactam N-11)		360			NRAS/KRAS (ratio of KD value with respect to NRAS to KD value with respect to KRAS) [1, 4]: B (a compound having 3 or more and less than 10 is denoted as B); HRAS/KRAS (ratio of KD value with respect to HRAS to KD value with respect to KRAS) [3, 5]: C (A compound having a KD ratio of 0.1 or more and less than 3 is denoted as C)
